Experimental data reported in US20070128217A1 (priority 2003, published 2007).

Legend:
[1] = test system: control sera (pooled serum of ten healthy LUMC hospital workers; commercial negative donor pooled serum from the Dutch bloodbank); assay type: binding, human; parameters: Binding of Control serum LUMC to linear peptides / Binding of Control serum Blood-bank to linear peptides / Binding of Control serum LUMC to looped peptides / Binding of Control Serum Blood-Bank to Looped peptides / Binding of Control serum LUMC to linear peptides of the protein M of SARS-CoV Urbani / Binding of Control serum Blood-bank to linear peptides of the protein M of SARS-CoV Urbani / Binding of Control serum LUMC to looped peptides of the protein M of SARS-CoV Urbani / Binding of Control Serum Blood-Bank to Looped peptides of the protein M of SARS-CoV Urbani: unit not given here
[2] = test system: rabbit serum obtained by immunizing a rabbit with the SARS-CoV strain Frankfurt 1; assay type: binding; parameters: Binding of a rabbit serum to linear peptides / Binding of a rabbit serum to looped peptides / Rabbit serum linear peptides / Rabbit serum looped peptides / Binding of a rabbit serum to linear peptides of protein N of SARS-CoV Urbani (Rabbit serum linear peptides) / Binding of a rabbit serum to looped/cyclic peptides of protein N of SARS-CoV Urbani (Rabbit serum looped peptides): unit not given here

Row | Sequence | Rabbit serum linear peptides [2] | Rabbit serum looped peptides [2] | Binding of Control Serum Blood-Bank to Looped peptides [1] | Binding of Control serum Blood-bank to linear peptides [1] | Binding of Control serum LUMC to linear peptides [1] | Binding of Control serum LUMC to looped peptides [1] | Binding of a rabbit serum to linear peptides [2] | Binding of a rabbit serum to looped peptides [2] | other results
1 | LTKKNYSELDDEEPM | 0.2 | 0.4 |  |  |  |  |  |  | Binding of Control Serum Blood-Bank to Looped peptides of the protein X3 of SARS-CoV Urbani [1]: 0.8; Binding of Control serum Blood-bank to linear peptides of the protein X3 of SARS-CoV Urbani [1]: 0.9; Binding of Control serum LUMC to linear peptides of the protein X3 of SARS-CoV Urbani [1]: 0.6; Binding of Control serum LUMC to looped peptides of the protein X3 of SARS-CoV Urbani [1]: 1.0
2 | LYHYQECVRGTTVLL | 0.6 | 0.3 | 0.7 | 0.6 | 0.6 | 0.6 |  |  | 
3 | MDPIYDEPTTTTSVP |  |  | 0.3 | 0.6 | 0.5 | 0.3 | 0.1 | 0.3 | 
4 | NGTITVEELKQLLEQ |  |  |  |  |  |  |  |  | Binding of Control Serum Blood-Bank to Looped peptides of the protein M of SARS-CoV Urbani [1]: 0.6; Binding of Control serum Blood-bank to linear peptides of the protein M of SARS-CoV Urbani [1]: 0.7; Binding of Control serum LUMC to linear peptides of the protein M of SARS-CoV Urbani [1]: 0.5; Binding of Control serum LUMC to looped peptides of the protein M of SARS-CoV Urbani [1]: 0.8; Recognition of the peptide by the rabbit serum [2]: recognized
5 | NSKKTTKLVVILRIG |  |  | 0.7 | 0.4 | 0.9 | 0.7 |  |  | Recognition of the peptide by the rabbit serum [2]: recognized
6 | NVSLVKPTVYVYSRV |  |  | 0.7 | 0.6 | 0.5 | 0.8 | 0.5 | 0.3 | 
7 | NYKLNTDHAGSNDNI | 0.5 | 0.0 |  |  |  |  |  |  | Binding of Control Serum Blood-Bank to Looped peptides of the protein M of SARS-CoV Urbani [1]: 0.6; Binding of Control serum Blood-bank to linear peptides of the protein M of SARS-CoV Urbani [1]: 0.7; Binding of Control serum LUMC to linear peptides of the protein M of SARS-CoV Urbani [1]: 0.5; Binding of Control serum LUMC to looped peptides of the protein M of SARS-CoV Urbani [1]: 0.8
8 | NYSELDDEEPMELDY | 0.4 | 0.3 |  |  |  |  |  |  | Binding of Control Serum Blood-Bank to Looped peptides of the protein X3 of SARS-CoV Urbani [1]: 0.8; Binding of Control serum Blood-bank to linear peptides of the protein X3 of SARS-CoV Urbani [1]: 0.9; Binding of Control serum LUMC to linear peptides of the protein X3 of SARS-CoV Urbani [1]: 0.9; Binding of Control serum LUMC to looped peptides of the protein X3 of SARS-CoV Urbani [1]: 0.9
9 | PFHPLADNKFALTCT | 0.4 | 0.4 | 0.9 | 0.7 | 0.8 | 0.9 |  |  | 
10 | PLADNKFALTCTSTH | 1.1 | 0.0 | 0.6 | 0.8 | 0.5 | 0.7 |  |  | 
11 | PLTKKNYSELDDEEP | 0.2 | 0.4 |  |  |  |  |  |  | Binding of Control Serum Blood-Bank to Looped peptides of the protein X3 of SARS-CoV Urbani [1]: 0.8; Binding of Control serum Blood-bank to linear peptides of the protein X3 of SARS-CoV Urbani [1]: 0.8; Binding of Control serum LUMC to linear peptides of the protein X3 of SARS-CoV Urbani [1]: 0.9; Binding of Control serum LUMC to looped peptides of the protein X3 of SARS-CoV Urbani [1]: 0.8
12 | PSGTYEGNSPFHPLA | 0.5 | 0.5 | 0.8 | 0.9 | 0.7 | 0.9 |  |  | 
13 | PTVYVYSRVKNLNSS |  |  | 1.1 | 0.8 | 0.5 | 0.8 | 0.7 | 0.7 | 
14 | QDPAGGALIARCWYL | 0.5 | 0.9 | 0.8 | 0.7 | 0.3 | 0.6 |  |  | 
15 | QIGGYSEDRHSGVKD |  |  | 0.3 | 0.3 | 0.5 | 0.4 | 0.1 | 0.5 | 
16 | QVLKTMSLYMAISPK |  |  | 0.4 | 0.9 | 0.7 | 0.4 | 0.1 | 0.5 | 
17 | RHSGVKDYVVVHGYF |  |  | 0.7 | 0.6 | 0.5 | 0.6 | 0.1 | 0.4 | 
18 | RIGTQVLKTMSLYMA |  |  | 0.6 | 0.8 | 0.5 | 0.5 | 0.4 | 0.5 | 
19 | RQLFKPLTKKNYSEL | 0.3 | 0.5 |  |  |  |  |  |  | Binding of Control Serum Blood-Bank to Looped peptides of the protein X3 of SARS-CoV Urbani [1]: 0.9; Binding of Control serum Blood-bank to linear peptides of the protein X3 of SARS-CoV Urbani [1]: 0.9; Binding of Control serum LUMC to linear peptides of the protein X3 of SARS-CoV Urbani [1]: 0.8; Binding of Control serum LUMC to looped peptides of the protein X3 of SARS-CoV Urbani [1]: 0.7
20 | RVKNLNSSEGVPDLL |  |  | 0.7 | 1.0 | 1.0 | 1.0 | 0.8 | 0.6 | 
21 | SIVRQLFKPLTKKNY | 0.3 | 0.4 |  |  |  |  |  |  | Binding of Control Serum Blood-Bank to Looped peptides of the protein X3 of SARS-CoV Urbani [1]: 0.8; Binding of Control serum Blood-bank to linear peptides of the protein X3 of SARS-CoV Urbani [1]: 0.8; Binding of Control serum LUMC to linear peptides of the protein X3 of SARS-CoV Urbani [1]: 0.7; Binding of Control serum LUMC to looped peptides of the protein X3 of SARS-CoV Urbani [1]: 0.8
22 | SLVKPTVYVYSRVKN |  |  | 0.7 | 0.7 | 1.0 | 0.8 | 0.3 | 0.6 | 
23 | SSGVANPAMDPIYDE |  |  | 0.7 | 0.5 | 0.5 | 0.7 | 0.1 | 0.6 | 
24 | SSIVRQLFKPLTKKN | 0.4 | 0.5 |  |  |  |  |  |  | Binding of Control Serum Blood-Bank to Looped peptides of the protein X3 of SARS-CoV Urbani [1]: 0.8; Binding of Control serum Blood-bank to linear peptides of the protein X3 of SARS-CoV Urbani [1]: 1.2; Binding of Control serum LUMC to linear peptides of the protein X3 of SARS-CoV Urbani [1]: 1.1; Binding of Control serum LUMC to looped peptides of the protein X3 of SARS-CoV Urbani [1]: 0.7
